# Literature values, collected in US20080221048A1, “Lyophilized azithromycin formulation” (APP Pharmaceuticals, LLC., priority 2004, published 2008).
# Where two headings read alike, the source gives them in different places.
# Conditions: for time diluted azithromycin for injection is stable: diluted to 1.0-2.0 mg/mL
smiles,measurement,setting,value
"CC[C@H]1OC(=O)[C@H](C)[C@@H](O[C@H]2C[C@@](C)(OC)[C@@H](O)[C@H](C)O2)[C@H](C)[C@@H](OC2O[C@H](C)C[C@H](N(C)C)[C@H]2O)C(C)(O)C[C@@H](C)CN(C)[C@H](C)[C@@H](O)[C@]1(C)O (stereo in doubt) [azithromycin, (2R,3S,4R,5R,8R,10R,11R,12S,13S,14R)-13-[(2,6-dideoxy-3-C-methyl-3-O-methyl-α-L-ribo-hexo-pyranosyl)oxy]-2-ethyl-3,4,10-trihydroxy-3,5,6,8,10,12,14-heptamethyl-11-[[3,4,6-trideoxy-3-(dimethylamino)-β-D-xylo-hexopyranosyl]oxy]-1-oxa-6-azacyclopentadecan-15-one]",time diluted azithromycin for injection is stable,at or below room temperature (30° C. or 86° F.),24 h
same,time diluted azithromycin for injection is stable,stored under refrigeration (5° C. or 41° F.),170 h
same,time reconstituted azithromycin solution is stable,"reconstituted solution (about 100 mg/mL), stored below 30° C. or 86° F.",24 h
